Test results reported in article PMC5489165, “Identification of benzazole compounds that induce HIV-1 transcription” (PLoS ONE, 2017).

What was measured:
HIV-1 LTR = experiment: HIV LTR-driven Rluc reporter in HeLa cells; assay type: cell-based; settings: transfected HeLa cells, 24 h
Description: The vector pGL4.77[hRlucP/Hygro] encoding a Renilla luciferase gene including a PEST destabilization sequence, was purchased from Promega (Madison, WI). HIV-1 cDNA was generated from HIVIIIB virus using PureLink® Viral RNA/DNA Mini Kit (Invitrogen). The HIV-1 core promoter region (nucleotides -105 to 60) was amplified from HIVIIIB cDNA using primers designed with NheI (forward: 5ʹ-GCTAGCGGGACTTTCCGCTGGG-3ʹ) and XhoI (reverse: 5ʹ-CTCGAGAGTGGGTTCCCTAGTTAGCCA-3ʹ) flanking restriction site sequences. DNA fragments were generated using Platinum® Taq DNA Polymerase High Fidelity (Invitrogen) and fragment size was verified by electrophoresis using E-Gel® 1.2% agarose (Invitrogen). Fragments were cloned into pCR™2.1 TOPO® (Invitrogen), transformed into One Shot® TOP10 Chemically Competent E. coli (Invitrogen), and selected on LB-agar plates containing 100 μg/ml ampicillin. Individual colonies were grown in LB broth, DNA was isolated using QIAprep® Spin Miniprep Kit (Qiagen), and the inserted fragment was verified by EcoRI digestion followed by electrophoresis using E-Gel® 1.2% agarose (Invitrogen). To insert the HIV-1 LTR into the vector multiple cloning region, the resultant plasmids and pGL4.77[hRlucP/Hygro] were dually digested with NheI and XhoI (New England Biolabs), ligated using ExpressLink™ T4 DNA Ligase (Invitrogen), transformed into One Shot® TOP10 Chemically Competent E. coli (Invitrogen), and selected on LB-agar plates containing 100 μg/ml ampicillin. Clones were picked and DNA isolated using QIAprep® Spin Miniprep Kit (Qiagen) and the inserted fragment was verified by NheI/XhoI digestion followed by electrophoresis using E-Gel® 1.2% agarose (Invitrogen). The resultant plasmid, pGL4.77-LTR, was verified by sequencing at GENEWIZ (South Plainfield, NJ). […] Luciferase activity was quantified using Renilla Luciferase Assay System (Promega, Madison, WI) and results were normalized to the vehicle-treated control.

[1] = system: NF-κB response element reporter in Jurkat cells; experiment: NF-κB-responsive Fluc reporter in Jurkat cells; assay type: cell-based, human; settings: stably-transfected Jurkat cells, 4 h
Description: The vector pGL4.32[luc2P/NF-κB-RE/Hygro] was purchased from Promega (Madison, WI), encoding 5 copies of a NF-κB response element driving expression of synthetic firefly luciferase gene, luc2, including a PEST destabilization sequence. Jurkat cells were transfected with this vector using a Gene Pulser® II (Biorad, Hercules, CA) with a 0.4 cm gap cuvette at 0.2 kV and 960 μF. Cells were allowed to recover for three days in RPMI-1640 with 10% FBS and 1% penicillin/streptomycin before selection with 200 μg/ml Hygromycin B for one month. Pooled, stably-transfected cells were plated at 50,000/well in 96-well plates and treated with test compounds in a final concentration of 0.5% DMSO for 4 h at 37°C. Luciferase activity was determined by adding one volume 2× steadylite plus reagent (Perkin Elmer, Waltham, MA) and reading on a ViewLux microplate imager.

[2] = Protein binding, mouse plasma (ultrafiltration); assay type: in vitro ADME; settings: pH 7.4
Method: Binding of test compound to plasma proteins was estimated by incubation of test compounds with mouse or human plasma. Human plasma was obtained from BioreclamationIVT (Westbury, NY). […] After a 15 min incubation at 37°C, triplicate aliquots of the incubation mixtures were transferred to a Millipore Multiscreen Ultracel-10 filter plate (10 kDa molecular mass cut off, EMD Millipore, Billerica, MA). The plate was centrifuged for 60 min at 3000 × g and 37°C. After centrifugation, aliquots of both the ultrafiltrates as well as the incubation mixtures prior to ultrafiltration were analyzed by LC-MS/MS to quantify the concentrations of test compound and reference compounds.

[3] = system: Epstein-Barr virus (EBV) in Raji cells; experiment: EBV activation assay in Raji cells (BZLF1 qRT-PCR); assay type: cell-based; settings: Raji cells, 24 h, concentrations as low as 0.014 ng/ml
IL-2 secretion by PBMCs = experiment: IL-2 ELISA in PBMCs; assay type: cell-based, human; settings: 24 h
Method: Cryopreserved PBMCs from a single donor were thawed in RPMI-1640 plus 10% FBS. PBMCs were plated at 5×10^4/well in 96-well plates and compound was added with a final concentration of 0.5% DMSO. Plates were incubated for 24 h at 37°C, 5% CO2. Interleukin-2 was quantified using Human IL-2 DuoSet ELISA (R&D Systems, Minneapolis, MN). Raw data were converted to ng/ml IL-2 using a standard curve obtained in parallel.

[4] = system: HIV-1 Gag (p24) in ACH-2 cells; experiment: Intracellular staining for HIV Gag in ACH-2 cells (flow cytometry); assay type: cell-based; settings: 16 h, 30 μM Cmpd 1 or Cmpd 2, 10 μM SAHA, 1 mM JQ1 or 10 ng/ml PMA, single experiment (Fig 4A)
Method: ACH-2 cells were treated as indicated and HIV-1 expression was monitored by intracellular staining for p24. Approximately, 1 × 10^6 cells were collected and washed in PBS before fixing by resuspending in 100 μl of BD Cytofix/Cytoperm (BD Biosciences, San Jose, CA) at 4°C for at least 20 min. Cells were then harvested by centrifugation and resuspended in 100 μl BD PermWash (50 mM NH4Cl, 5 mM EDTA, 0.1% saponin, 0.5% BSA, PBS and 1 mg/ml of anti-HIV-Gag PE (Clone KC57, Beckman Coulter, Brea CA). Cells were stained for 30 min, washed with the PermWash, and resuspended in FACS buffer (2 mM EDTA, 0.5% BSA, 1% paraformaldehyde in PBS). Cells were analyzed by flow cytometry using a FACSCalibur instrument (BD Biosciences). Flow cytometry was performed at the Boston University School of Medicine flow cytometry core.
Fig 4 Induction of HIV-1 expressing cells following treatment with latency reversing agents. ACH-2 cells were not treated or treated with a final concentration of 30 μM Cmpd 1 or Cmpd 2, 10 μM SAHA, 1 mM JQ1 or 10 ng/ml PMA for 16 h. Cells were stained using anti-HIV-Gag-PE and analyzed by flow cytometry. Numbers within the profiles represent the percentage of positive cells. These profiles are from a single experiment. B) Data from four independent experiments. Y-axis is mean of % p24 positive cells. * Cmpd 1 p-value […] compared to other treatments using a two-tailed t-test. TEXT PRINTED IN THE PICTURE: (A) Cmpd 1: Intracellular Gag: 65.6% | (A) Cmpd 2: Intracellular Gag: 33.9% | (A) SAHA: Intracellular Gag: 23.0% | (A) JQ1: Intracellular Gag: 16.7% | (A) PMA: Intracellular Gag: 94.2%

[5] = system: Kaposi's sarcoma associated herpesvirus (KSHV) in BCP-1 cells; experiment: KSHV activation assay in BCP-1 cells (ORF50 qRT-PCR); assay type: cell-based; settings: 24 h, concentrations as low as 0.014 ng/ml
[6] = system: HIV-1 transcription in 24STNLSG cells; experiment: SEAP assay in 24STNLSG cells (latency reactivation); assay type: cell-based; settings: for EC2X, 24STNLSG: concentration for 2-fold increase in SEAP activity; for Activity in 24STNLSG cells (in words): structure-activity
Method: SupT1-derived 24STNLSG cells were plated at 100,000 cells/well in black bottom/black walled 96-well plates in 50 μl RPMI-1640 medium (without phenol red) containing 10% FBS. Compound was added in 50 μl of identical medium using three-fold dose-response dilutions, in duplicate. […] TNF-α, a nuclear factor-κB (NF-κB) activator known to induce HIV- expression in cellular models, was used as a positive control. Plates were incubated for 72 h at 37°C, 5% CO2. Plates were then sealed and heated to 65°C for 30 min. Plates were brought to room temperature and 50 μl assay buffer (1 mM MgCl2, 10 mM L-homoarginine, 1 M diethylamine hydrochloride) was added to each well and incubated for 5 min at room temperature. To each well, 50 μl of CSPD Substrate (0.4 mM Ready-to-Use with Sapphire-II Enhancer; Applied Biosystems, Foster City, CA) was added. Plates were incubated for 20 min at room temperature and read on a ViewLux microplate imager (Perkin Elmer, Waltham, MA). Curves were fit by non-linear regression using Prism software (GraphPad, San Diego, CA).

[7] = Cytotoxicity assay in SupT1 cells (ATP, CellTiter-Glo); assay type: cell-based; settings: human, SupT1 cells; ATP quantification; 72 h; read-out: CC50, SupT1
Method: SupT1 cells were plated at 100,000 per well in 96-well, white-walled plates with serial dilutions of test compound in a total volume of 100 μl RPMI-1640 medium containing 10% FBS and 0.5% DMSO. PBMCs were plated similarly at 50,000 cells/well and stimulated by addition of 40 μg/ml PHA and 80 ng/ml interleukin-2 (IL-2). Cells were incubated for 72 h at 37°C, 5% CO2. ATP was quantified using the CellTiter-Glo Luminescent Cell Viability Assay (Promega, Madison, WI) on a ViewLux microplate imager (Perkin Elmer, Waltham, MA). Percent cytotoxicity was determined relative to vehicle-only treated wells.

[8] = Protein binding, human plasma (ultrafiltration); assay type: in vitro ADME; settings: human plasma, 10 μM, pH 7.4
[9] = Microsome assay, mouse liver microsomes; assay type: in vitro ADME
Method: (§1) Human and mouse liver microsomes were obtained from XenoTech, LLC (Kansas City, KS). The reaction mixture was composed of liver microsomes (0.5 mg/mL), 20 mM Tris-HCl pH 7.4, 2.5 mM MgCl2, and an NADPH generating system (0.1 mM NADP, 1.2 mM glucose-6-phosphate and 0.3 units/ml glucose-6-phophate dehydrogenase). […] Test compounds were added to the microsome reaction and loss of parent molecule was monitored after 1 h by LC/MS/MS.

[10] = Microsome assay, human liver microsomes; assay type: in vitro ADME
Method: as §1

## TNF-α
HIV-1 LTR
  Transcription driven by the HIV-1 LTR (in words): significantly increased expression of this reporter
[1]
  Induction of NF-κB driven reporter (in words): strongly induced this reporter

## CC(=O)CC(c1ccccc1)c1c(O)c2ccccc2oc1=O (racemic) [Warfarin, (RS)-warfarin, reference compound]
[2]; mouse, plasma
  fraction unbound at 15 min, 10 μM: 0.047

## CCCCCCCCCCCCCC(=O)O[C@@H]1[C@@H](C)[C@@]2(O)[C@@H](C=C(CO)C[C@]3(O)C(=O)C(C)=C[C@@H]23)[C@@H]2C(C)(C)[C@]12OC(C)=O [PMA, phorbol 12-myristate 13-acetate, reference compound]
[3]
  Stimulation of BLZF1 mRNA (EBV): > 35 fold
IL-2 secretion by PBMCs
  IL-2 secretion by PBMCs (in words): induced high levels of IL-2
[4]
  Intracellular Gag, percentage of positive cells: 94.2%
[5]
  Stimulation of ORF50 mRNA (KSHV): > 35 fold

## O=C(CCCCCCC(=O)Nc1ccccc1)NO [SAHA, Suberanilohydroxamic acid, reference compound]
[4]
  Intracellular Gag, percentage of positive cells: 23.0%

## Nc1ccc2[nH]c(-c3ccc(-c4nc5cc(N)ccc5[nH]4)cc3)nc2c1 [Compound 6]
[6]; 72 h
  EC2X, 24STNLSG: >100 µM
[6]
  Activity in 24STNLSG cells (in words): inactive
[7]
  CC50 at 72 h: > 100 µM

## Nc1ccc2[nH]c(-c3ccc(-c4nc5c(N)cccc5o4)cc3)nc2c1 [Compound 3]
[6]; SEAP reporter, 72 h
  Max. fold induction, 24STNLSG: 3 fold
[6]; 72 h
  EC2X, 24STNLSG: 3.7 µM
[7]
  CC50 at 72 h: 8.8 µM

## Cc1sc2c(c1C)C(c1ccc(Cl)cc1)=N[C@@H](CC(=O)OC(C)(C)C)c1nnc(C)n1-2 [JQ1, reference compound]
[4]
  Intracellular Gag, percentage of positive cells: 16.7%

## Cn1c(-c2ccc(-c3nc4cc(N)ccc4o3)cc2)nc2cc(N)ccc21 [Compound 4]
[6]; 72 h
  EC2X, 24STNLSG: >100 µM
[6]
  Activity in 24STNLSG cells (in words): complete loss of activity
[7]
  CC50 at 72 h: > 100 µM

## CC(C)NCC(O)COc1cccc2ccccc12 (stereo not shown) [Propanolol, propranolol, reference compound]
[8]
  % Plasma protein binding (human): 74.3%
[2]; mouse plasma, 10 μM
  % Plasma protein binding (mouse): 73.8%

## Nc1ccc2oc(-c3ccc(-c4nc5cc(N)ccc5o4)cc3)nc2c1 [Compound 5]
[6]; 72 h
  EC2X, 24STNLSG: >100 µM
[6]
  Activity in 24STNLSG cells (in words): inactive
[7]
  CC50 at 72 h: > 100 µM

## CC(C)N(CCC(C(N)=O)(c1ccccc1)c1ccccn1)C(C)C (stereo not shown) [Disopyramide, reference compound]
[9]
  MLM stability (% loss of parent compound at 1 h): 12%
[10]
  HLM stability (% loss of parent compound at 1 h): 9%
